# From ChEMBL document CHEMBL1201862, “PubChem BioAssay data set” (2004)
#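 Cells were grown in 96-well plates and exposed to each compound for 48 hours at five concentrations; endpoints were interpolated linearly between bracketing concentrations, or set to the highest concentration if not reached. Abbreviation: GI50, concentration required for 50% inhibition of growth.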 Calls of active or inactive are those of the source. No stated cut-off is given here; in the data, active = GI50 up to about 1.1 µM and inactive = higher.
# Tests used:
# Assay in all cases: DTP human tumour cell line panel, 48 h
# 786-0 = test system: 786-0
# A498 = test system: A498
# A549 = test system: A549
# BT-549 = test system: BT-549
# COLO 205 = test system: COLO 205
# DU-145 = test system: DU-145
# EKVX = test system: EKVX
# HT-29 = test system: HT-29
# IGROV-1 = test system: IGROV-1
# MCF7 = test system: MCF7
# MDA-MB-435 = test system: MDA-MB-435
# Malme-3M = test system: Malme-3M
# NCI-H23 = test system: NCI-H23
# NCI-H460 = test system: NCI-H460
# OVCAR-3 = test system: OVCAR-3
# OVCAR-4 = test system: OVCAR-4
# SF-268 = test system: SF-268
# SW-620 = test system: SW-620
# TK-10 = test system: TK-10
# UACC-257 = test system: UACC-257
SMILES,GI50 (786-0),GI50 (A498),GI50 (A549),GI50 (BT-549),GI50 (COLO 205),GI50 (DU-145),GI50 (EKVX),GI50 (HT-29),GI50 (IGROV-1),GI50 (MCF7),GI50 (MDA-MB-435),GI50 (Malme-3M),GI50 (NCI-H23),GI50 (NCI-H460),GI50 (OVCAR-3),GI50 (OVCAR-4),GI50 (SF-268),GI50 (SW-620),GI50 (TK-10),GI50 (UACC-257)
CS(=O)(=O)N1CC(CCl)c2ccc(NO)cc21 (stereo not given),13.4 µM (inactive),15.2 µM (inactive),35.2 µM (inactive),12 µM (inactive),18 µM (inactive),6.89 µM (inactive),16.7 µM (inactive),14.3 µM (inactive),13.6 µM (inactive),8.3 µM (inactive),16.6 µM (inactive),19.1 µM (inactive),5.06 µM (inactive),14.9 µM (inactive),11.7 µM (inactive),17.5 µM (inactive),5.22 µM (inactive),12.6 µM (inactive),21.3 µM (inactive),19.5 µM (inactive)
Cc1cnc2c(c1)C(=O)C1=C(C2=O)C2OC(=O)CC2OC1(C)C (stereo not given),0.258 µM (active),1.83 µM (inactive),1.53 µM (inactive),0.185 µM (active),0.0462 µM (active),1.64 µM (inactive),0.209 µM (active),0.0588 µM (active),0.179 µM (active),0.0533 µM (active),0.308 µM (active),0.0736 µM (active),0.321 µM (active),0.76 µM (active),< 0.01 µM (active),0.159 µM (active),0.223 µM (active),0.0782 µM (active),0.735 µM (active),0.198 µM (active)
O=c1c(Cl)cc2nc3ccccc3sc-2c1Cl,21.2 µM (inactive),33.9 µM (inactive),18.7 µM (inactive),11.7 µM (inactive),18.5 µM (inactive),12.9 µM (inactive),3.22 µM (inactive),23.2 µM (inactive),13.6 µM (inactive),14.4 µM (inactive),2.82 µM (inactive),10 µM (inactive),11 µM (inactive),18 µM (inactive),1.98 µM (inactive),13.2 µM (inactive),14.9 µM (inactive),12.5 µM (inactive),17.9 µM (inactive),2.75 µM (inactive)
COc1ccc(NC(=O)C(=O)Cc2nc3ccc(C(=O)c4ccccc4)cc3nc2O)c([N+](=O)[O-])c1,39.1 µM (inactive),16.6 µM (inactive),47.1 µM (inactive),26.9 µM (inactive),16 µM (inactive),27.5 µM (inactive),28.3 µM (inactive),14.9 µM (inactive),17.6 µM (inactive),41.6 µM (inactive),12.1 µM (inactive),53.6 µM (inactive),20.5 µM (inactive),32.1 µM (inactive),22.5 µM (inactive),43.7 µM (inactive),34.8 µM (inactive),19.1 µM (inactive),24.9 µM (inactive),22.6 µM (inactive)
COc1ccc2c(c1)CC[C@@H]1C2CC[C@]2(C)C(=O)N(C)C(=O)CC12 (stereo not given in full),50.1 µM (inactive),> 100 µM (inactive),> 100 µM (inactive),> 100 µM (inactive),> 100 µM (inactive),> 100 µM (inactive),> 100 µM (inactive),> 100 µM (inactive),> 100 µM (inactive),> 100 µM (inactive),> 100 µM (inactive),> 100 µM (inactive),> 100 µM (inactive),> 100 µM (inactive),> 100 µM (inactive),> 100 µM (inactive),> 100 µM (inactive),> 100 µM (inactive),> 100 µM (inactive),> 100 µM (inactive)
CC1(C)N=C2C(=O)c3c([nH]c4ccccc34)[C@]3(C)CCC1CC23 (stereo not given in full),> 6.25 µM (inactive),> 6.25 µM (inactive),> 6.25 µM (inactive),> 6.25 µM (inactive),> 6.25 µM (inactive),> 6.25 µM (inactive),> 6.25 µM (inactive),> 6.25 µM (inactive),> 6.25 µM (inactive),> 6.25 µM (inactive),> 6.25 µM (inactive),> 6.25 µM (inactive),> 6.25 µM (inactive),> 6.25 µM (inactive),> 6.25 µM (inactive),> 6.25 µM (inactive),> 6.25 µM (inactive),> 6.25 µM (inactive),> 6.25 µM (inactive),> 6.25 µM (inactive)
C=C1C(=O)O[C@H]2[C@@H](O)[C@H](C)CCC/C(C)=C/CC[C@@]3(C)O[C@@H]3C[C@@H]12,3.61 µM (inactive),12.4 µM (inactive),20.5 µM (inactive),3.3 µM (inactive),3.93 µM (inactive),6.03 µM (inactive),4.22 µM (inactive),5.45 µM (inactive),3.5 µM (inactive),7.18 µM (inactive),7.5 µM (inactive),11.5 µM (inactive),8.75 µM (inactive),5.89 µM (inactive),11.3 µM (inactive),7.16 µM (inactive),8.22 µM (inactive),10.2 µM (inactive),1.86 µM (inactive),9.16 µM (inactive)
O=C(O)CN(CC(=O)O)Cc1cc(C#Cc2ccc(C#Cc3ccccc3)cc2)cc(CN(CC(=O)O)CC(=O)O)n1,13.1 µM (inactive),40.6 µM (inactive),29.1 µM (inactive),12.3 µM (inactive),11.5 µM (inactive),17.3 µM (inactive),20.3 µM (inactive),12.9 µM (inactive),18.7 µM (inactive),16.5 µM (inactive),22.8 µM (inactive),31 µM (inactive),32.7 µM (inactive),17.7 µM (inactive),9.02 µM (inactive),10.2 µM (inactive),12.2 µM (inactive),15.7 µM (inactive),17.5 µM (inactive),40.8 µM (inactive)
C=C(C)[C@@]1(O)CCC[C@H]1NC(=O)OC(C)(C)C,> 100 µM (inactive),> 100 µM (inactive),> 100 µM (inactive),> 100 µM (inactive),> 100 µM (inactive),> 100 µM (inactive),> 100 µM (inactive),> 100 µM (inactive),> 100 µM (inactive),> 100 µM (inactive),> 100 µM (inactive),> 100 µM (inactive),> 100 µM (inactive),> 100 µM (inactive),> 100 µM (inactive),> 100 µM (inactive),> 100 µM (inactive),> 100 µM (inactive),> 100 µM (inactive),> 100 µM (inactive)
CC12CCC(=O)C=C1CCC1C2CCC2(C)C(C(=O)Cn3cnc4c(=S)nc[nH]c43)CCC12 (stereo not given),27.2 µM (inactive),29.9 µM (inactive),48.1 µM (inactive),28.4 µM (inactive),42 µM (inactive),23.3 µM (inactive),41.5 µM (inactive),33 µM (inactive),23.6 µM (inactive),18.1 µM (inactive),24.7 µM (inactive),40.5 µM (inactive),24.5 µM (inactive),28.8 µM (inactive),18.2 µM (inactive),17.3 µM (inactive),38.3 µM (inactive),76.2 µM (inactive),36 µM (inactive),35.6 µM (inactive)
CC(=O)O[C@H]1CC(C)(C)C(=C=C/C(C)=C/C=C/C=C/C=C(C)/C=C2C=C(/C=C/[C@@]34O[C@]3(C)C[C@@H](O)CC4(C)C)C(=O)O/2)[C@](C)(O)C1,16 µM (inactive),24.7 µM (inactive),11.5 µM (inactive),2.51 µM (inactive),19.6 µM (inactive),33.2 µM (inactive),> 10 µM (inactive),21.2 µM (inactive),2.88 µM (inactive),3.81 µM (inactive),14.8 µM (inactive),16.7 µM (inactive),5.14 µM (inactive),8.09 µM (inactive),10.1 µM (inactive),4.75 µM (inactive),15 µM (inactive),19.6 µM (inactive),0.959 µM (active),12.8 µM (inactive)
O=C(NCCc1ccccc1)c1cc(/C=C/c2cc(O)ccc2O)ccc1O,2.38 µM (inactive),4.4 µM (inactive),10.3 µM (inactive),1.78 µM (inactive),5.61 µM (inactive),8.59 µM (inactive),2.91 µM (inactive),18.3 µM (inactive),3.03 µM (inactive),2.62 µM (inactive),3.96 µM (inactive),2.22 µM (inactive),4.95 µM (inactive),9.44 µM (inactive),2.67 µM (inactive),2.27 µM (inactive),3.19 µM (inactive),5.71 µM (inactive),2.93 µM (inactive),2.64 µM (inactive)
COc1cc(/C=C2\CCc3cc(OC)c(OC)cc3C2=O)cc(OC)c1,4.66 µM (inactive),6.82 µM (inactive),5.2 µM (inactive),10.4 µM (inactive),3.28 µM (inactive),9.98 µM (inactive),24.3 µM (inactive),3.49 µM (inactive),7.35 µM (inactive),4.2 µM (inactive),1.99 µM (inactive),10 µM (inactive),10.9 µM (inactive),5.41 µM (inactive),4.47 µM (inactive),21.4 µM (inactive),41.2 µM (inactive),6.19 µM (inactive),24 µM (inactive),19.7 µM (inactive)
CN(C)C(=S)/N=c1\ssc(=S)n1Cc1cccs1,3.83 µM (inactive),4.13 µM (inactive),5.27 µM (inactive),11 µM (inactive),2.36 µM (inactive),3.24 µM (inactive),26.2 µM (inactive),2.62 µM (inactive),4.11 µM (inactive),1.99 µM (inactive),0.658 µM (active),2.4 µM (inactive),3.75 µM (inactive),3.73 µM (inactive),1.76 µM (inactive),14.6 µM (inactive),5.45 µM (inactive),2.07 µM (inactive),8.24 µM (inactive),6.76 µM (inactive)
